Measured values taken from patent publication US6863897B2, “Stabilization of resorcinol derivatives in cosmetic compositions” (Unilever Home & Personal Care USA, division of Conopco, Inc., priority 2002, dated 2005).

Test: Storage color stability of resorcinol formulations with and without micronized TiO2 (chromameter CIE L*)
Assay type: physicochemical
Parameters: key: difference in CIE L* (lightness) values, with TiO2 minus without
Conditions: 45° C. oven, glass amber jars, 0.2% micronized TiO2 (MT-100Z), resorcinol content 2.17 milli-M
Description: In this experiment, the storage stability in terms of color change of resorcinol derivatives time was measured with and without the presence of metal oxides.
The color stabilization of formulations of containing 4-substituted resorcinol derivatives by TiO2 was assessed by measuring the chromameter L* value (Luminance, or lightness) of the different formulations over time. A decrease in L* over time represents a darkening of the formulations as color develops from the white starting formulation due to decomposition of the resorcinol derivative. In Table 5 below, the ΔL value between formulations with and without TiO2 indicates the magnitude of color difference between the comparative samples. […] Thus, one can see that TiO2 has a large color-stabilizing effect, particularly on the formulations containing 4-substituted resorcinols.
The cosmetic compositions of Examples 5 to 8 in the Table above were stored and tested for stability in terms of discoloration. The resorcinol and 4-substituted resorcinol derivatives in these examples had equal molar content, i.e., 2.17 milli-M. A comparative composition, example 8, was made by eliminating resorcinol or its derivatives from the compositions of examples 5 to 8. The product formulations were stored for 56 days in glass amber jars of 120 ml volume in an oven at 45° C.
Procedure for Measuring CIE L*a*b* Color of Cosmetic Formulations
A film is created by applying a composition evenly to an UV-Transparent quartz plate (4″×4⅛″×⅛″) with a spatula. An 8-path wet film applicator from Paul Gardner Company, Inc. with a 3″ path width is used. The applicator is manually drawn across the plate for a […] thickness.
The plate is flipped over with the thin film facing the bench top and suspended 1½″ above a black benchtop (L*a*b* reading of the benchtop is L*=27.5, a*=0.5, b*=−0.6). Then a hand held Minolta CR10 chromameter is calibrated on a white Calibration Color tile (L 98.2, a 0.2, b 1.2). The chromameter is then placed on the top of the plate and three readings of the Commission Internationale de l'Eclairage (CIE) L*a*b* color system are taken. • L*=Black to white (luminance) from 0 to 100 [L*=0 represents Black] • a*=green to red from −60 to +60 • b*=blue to yellow from −60 to +60
The formulation thin film L* values were used in the present analysis. For each data collection the average value for the three readings was used at 0, 14, 28, and 56 days.

SMILES | Base-adjusted ΔL with TiO2 - ΔL without TiO2 for the resorcinol formulations (storage time 0 day) | Base-adjusted ΔL with TiO2 - ΔL without TiO2 for the resorcinol formulations (storage time 14 days) | Base-adjusted ΔL with TiO2 - ΔL without TiO2 for the resorcinol formulations (storage time 28 days) | Base-adjusted ΔL with TiO2 - ΔL without TiO2 for the resorcinol formulations (storage time 56 days)
CCCCCCc1ccc(O)cc1O [4-Hexyl resorcinol, 4-hexyl resorcinol] | 0 | 7.7 | 0.1 | 3.7
CCc1ccc(O)cc1O [4-Ethyl resorcinol, 4-ethyl resorcinol] | 0 | 12.0 | 4.6 | 7.6
Oc1cccc(O)c1 [Resorcinol] | 0 | 0.9 | −2 | 1.1
